Measurements from ChEMBL document CHEMBL1126213, “Synthesis and biological activity of a 5,6-substituted teleocidin” (Bioorg Med Chem Lett, 1992).

Target: Protein kinase C, PKC; classical/novel
Experiment: Binding to PKC in 3[H]-[…] assay
Format: protein assay

IC50: 0.4 µM
SMILES: CC(C)[C@@H]1Nc2c3c(cc4[nH]cc(c24)C[C@@H](CO)NC1=O)C(C)(C)CCC3(C)C
